Test results as given in US12419879B2, “Combination therapy for the treatment of pancreatic cancer” (Genentech, Inc., priority 2016, dated 2025).

Key:
KP4 cells = assay: Small molecule inhibitor screen of KP4 cells in 2D monolayer and 3D spheroid cultures; assay type: cell-based, human; settings: 2D monolayer vs 3D spheroid
Experimental: Cell viability assays were performed by treating cells with a dose titration (0.001 to 10 μM) or fixed dose (1 μM) of the various pharmacologic inhibitors for 72 hrs and measuring viability using CellTiter Glo (Promega). Bliss scores were calculated as described previously. (Borisy A A, Elliott P J, Hurst N W, Lee M S, Lehar J, Price E R, Systematic discovery of multicomponent therapeutics, Proceedings of the National Academy of Sciences of the United States of America, 2003; 100(13):7977-82, Epub 2003/06/12).
To compare how pancreatic cancer cells cultured in 2-dimensional (2D) and 3-dimensional (3D) cultures respond to various cancer therapeutic agents, we treated the KAS mutant PDAC cancer cell line KP4 with a panel of 203 small molecule inhibitors of cancer-relevant targets and known chemotherapeutics (Table 1).
For 3D cultures, described herein is a method to facilitate a relatively rapid “high-throughput” analysis. […] Their drug sensitivity pattern was also similar to previously described spheroids (FIGS. 28 & 29).

PDAC cell lines = assay: Cell viability assay (CellTiter Glo) with Bliss analysis in PDAC cell lines, 2D and 3D; assay type: cell-based, human
Experimental: Cell viability assays were performed by treating cells with a dose titration (0.001 to 10 μM) or fixed dose (1 μM) of the various pharmacologic inhibitors for 72 hrs and measuring viability using CellTiter Glo (Promega). Bliss scores were calculated as described previously.

KPP xenografts = assay type: in vivo; settings: cobimetinib 5 mg/kg and/or ponatinib 30 mg/kg, PO, QD; for Tumor volume (last day): in mm³ (unit assumed)
Experimental: (§1) All animal studies were carried out in compliance with National Institutes of Health Guide for the Care and Use of Laboratory Animals. […] Two xenograft models were used: the human PDAC-derived cell line KP4 and cells derived from tumors isolated from KPP GEMM mice. 5×10^6 cells were subcutaneously implanted into the right flanks of immune-deficient mice (Charles River Laboratories) without using any Matrigel. […] Tumor volumes were measured using Ultra-Cal IV calipers at the indicated intervals. To appropriately analyze the repeated measurement of tumor volumes from the same animals over time, a mixed modeling approach was used. (Jose Pinheiro D B, Saikat DebRoy, Deepayan Sarkar, R Core team. Linear and Nonlinear mixed effects models. Package ‘nlme’2008). This approach addresses both repeated measurements and modest dropouts due to any non-treatment-related deaths of animals before the study end. Cubic regression splines were used to fit a non-linear profile to time courses of log2 tumor volume at each dose level. These non-linear profiles were then related to the dose within the mixed model.
(§2) To determine the uncertainty intervals (UIs) for % TGI, the fitted curve and the fitted covariance matrix were used to generate a random sample as an approximation to the distribution of % TGI. […] The reported UIs were the values for which 95% of the time the recalculated values of % TGI would fall in this region given the fitted model. The 2.5 and 97.5 percentiles of the simulated distribution were used as the upper and lower UIs. Tumor growth inhibition >60% was considered meaningful. (Wong H, Choo E F, Alicke B, Ding X, La H, McNamara E, Antitumor activity of targeted and cytotoxic agents in murine subcutaneous tumor models correlates with clinical response, Clinical Cancer Research: an official journal of the American Association for Cancer Research, 2012; 18(14):3846-55. Epub 2012/06/01).
(§3) Plotting was performed and generated using R, version 2.8.1 (R Development Core Team 2008; R Foundation for Statistical Computing; Vienna, Austria) and Excel, version 12.0.1 (Microsoft Corporation). Data were analyzed using R, version 2.8.1, and the mixed models were fit within R using the nlme package, version 3.1-89 (41).

KP4 xenografts = assay type: in vivo
Experimental: as §1, §2, §3

xenograft tumors = assay: Histopathology, IHC/IF staining and immunoblotting of grafted tumors; assay type: in vivo, mice
Experimental: Cells were seeded in 10 cm dishes and treated with 1 μM of small molecule inhibitors for 24 hrs. Cell lysates were prepared in RIPA lysis buffer (Thermo Scientific) containing a protease inhibitor cocktail (Thermo Scientific), SDS-PAGE was performed and proteins were transferred to nitrocellulose membranes. Immunoblotting was performed using standard methods. Protein bands were quantified using ImageJ software. Primary antibodies: p-Erk, p-STAT3, p-S6, total-S6, p-PDGFRα, p-PDGFRβ, p-RSK3, cleaved PARP, Bcl-xL, Mcl, survivin, Rab11, p-Akt, β-Actin, GAPDH (Cell Signaling), total-STAT3, total-PDGFRα (Santa Cruz Biotechnology), p-EphA7 (Gene Tex) and p-EphA2/3, EphA2/5 (MyBioscource). Immunohistochemistry and immunofluorescence were performed on 4 μm thick sections cut from formalin-fixed paraffin-embedded cell pellets, whole tissue sections, and TMA blocks (US Biomax, Inc.). Slides were deparaffinized and antigen unmasking was performed on PT Module (Thermo Scientific) with Target Retrieval Solution (Dako). […] Antibody binding was detected using Vecstatin ABC Elite horseradish peroxidase (Vector Laboratories) or PowerVision Poly-HRP (Leica Biosystems) and metal-enhanced 3, 3′-diaminobenzidine (Pierce) for IHC stainings and PowerVision Poly-HRP (Leica Biosystems) along with TSA kits (Life Technologies) for immunofluorescence staining. […]

IL-6 secretion = IL-6 secretion in 2D culture supernatants of PDAC cell lines; assay type: cell-based, human; settings: multiple PDAC cell lines, 24 hrs
[1] = tested on: PDGFRα, S6 and STAT3 activation; assay: Western blot of signaling proteins in PDAC cells (2D and 3D); assay type: cell-based, human; settings: KP4 cells
Experimental: Cells were seeded in 10 cm dishes and treated with 1 μM of small molecule inhibitors for 24 hrs. Cell lysates were prepared in RIPA lysis buffer (Thermo Scientific) containing a protease inhibitor cocktail (Thermo Scientific), SDS-PAGE was performed and proteins were transferred to nitrocellulose membranes. Immunoblotting was performed using standard methods. Protein bands were quantified using ImageJ software. Primary antibodies: p-Erk, p-STAT3, p-S6, total-S6, p-PDGFRα, p-PDGFRβ, p-RSK3, cleaved PARP, Bcl-xL, Mcl, survivin, Rab11, p-Akt, β-Actin, GAPDH (Cell Signaling), total-STAT3, total-PDGFRα (Santa Cruz Biotechnology), p-EphA7 (Gene Tex) and p-EphA2/3, EphA2/5 (MyBioscource).

[2] = tested on: serum growth factors and cytokines; assay: Luminex assay / ELISA of plasma samples of KP4 xenograft mice; assay type: in vivo
[3] = cobimetinib 5 mg/kg and/or ponatinib 30 mg/kg, PO, QD

Cn1cnc2c(F)c(Nc3ccc(Br)cc3Cl)c(C(=O)NOCCO)cc21 [AZD6244]
differential sensitivity of 3D versus 2D cultures (KP4 cells): more effective on 3D cultures than the 2D cultures

CS(=O)(=O)N1CCN(Cc2cc3nc(-c4cccc5[nH]ncc45)nc(N4CCOCC4)c3s2)CC1 [GDC-0941]
differential sensitivity of 3D versus 2D cultures (KP4 cells): more effective on 3D cultures than the 2D cultures

O=C(c1ccc(F)c(F)c1Nc1ccc(I)cc1F)N1CC(O)([C@@H]2CCCCN2)C1 [Cobimetinib]
effect on cell viability as single agents (PDAC cell lines): no effect on cell viability
differential sensitivity of 3D versus 2D cultures (KP4 cells): more effective on 3D cultures than the 2D cultures
% TGI (AUC vs. Vehicle) (KPP xenografts): 31%
TTP 2X (Time to Tumor Progression, 2X original volume) (KPP xenografts): 6.5
Tumor volume (last day) (KPP xenografts): 917
effect on tumor growth (in words) (KP4 xenografts): ineffective as single agents
% TGI (AUC vs. Vehicle) (KP4 xenografts; [3]): 70%
TTP 2X (Time to Tumor Progression, 2X original volume) (KP4 xenografts; [3]): 13
Tumor volume (last day) (KP4 xenografts; [3]): 532 mm³
p-PDGFRα, p-STAT3 and pS6 in grafted tumors (xenograft tumors): induction
secretion of IL-6 (IL-6 secretion): increased secretion of the IL-6 ligand
activation of p-PDGFRα, p-STAT3 and p-S6 (western blot) [1]: increased level of activation
serum growth factor and cytokine levels [2]: Significantly elevated serum levels of PDGFα, PDGFβ, and increased levels of IL-6

O=C(NOC[C@H](O)CO)c1ccc(F)c(F)c1Nc1ccc(I)cc1F [PD901]
differential sensitivity of 3D versus 2D cultures (KP4 cells): more effective on 3D cultures than the 2D cultures

Cc1ccc(C(=O)Nc2ccc(CN3CCN(C)CC3)c(C(F)(F)F)c2)cc1C#Cc1cnc2cccnn12 [Ponatinib]
effect on cell viability as single agents (PDAC cell lines): no effect on cell viability
TTP 2X (Time to Tumor Progression, 2X original volume) (KPP xenografts): 7
Tumor volume (last day) (KPP xenografts): 1045
effect on tumor growth (in words) (KP4 xenografts): ineffective as single agents
TTP 2X (Time to Tumor Progression, 2X original volume) (KP4 xenografts; [3]): 8.5
Tumor volume (last day) (KP4 xenografts; [3]): 408 mm³

O=C(NOCCO)c1ccc2cncn2c1Nc1ccc(I)cc1F [GDC-0623]
differential sensitivity of 3D versus 2D cultures (KP4 cells): more effective on 3D cultures than the 2D cultures

Cc1c(CN2CCN(C(=O)[C@H](C)O)CC2)sc2c(N3CCOCC3)nc(-c3cnc(N)nc3)nc12 [GDC-0980]
differential sensitivity of 3D versus 2D cultures (KP4 cells): more effective on 3D cultures than the 2D cultures
